We go through three compounds from patent US6531476B1, “Piperazine derivatives inhibiting human immunodeficiency virus replication” (Universite Paris 7 - Denis Diderot, priority 1998, dated 2003).

Like-named read-outs stand apart in the source and are kept apart here.

Data set [1] concerns monocyte-derived macrophages. The data set can be described thus: Cytotoxicity: neutral red viability test on monocyte-derived macrophage cultures. The format is cell-based. As to conditions: 100 μM, FIG. 3. As to the method:
The cytotoxicity of the piperazine derivatives in accordance with the invention was evaluated by measuring, by means of three different tests:
a test with neutral red, the viability of peripheral blood mononuclear cell cultures and of monocyte-derived macrophage cultures treated with the piperazine derivatives in accordance with the invention and by comparing the results obtained with those observed for “control” cultures, i.e. peripheral blood mononuclear cell cultures or monocyte-derived macrophage cultures prepared under the same conditions but in the absence of any treatment with said piperazine derivatives.
The neutral red test is also a test which is used on adherent cells and which was used to measure the effects of the piperazine derivatives in accordance with the invention on the monocyte-derived macrophages. […]
In all cases, the viability of the peripheral blood mononuclear cells and of the monocyte-derived macrophages was measured before culturing them, and then at each renewal of the culture media.

Data set [2] deals with HIV-1/Ba-L. As to the kind of experiment: Inhibition of HIV replication in monocyte-derived macrophages (reverse transcriptase activity in culture supernatants). The format is cell-based. Particulars: dose-effect curve FIG. 1. From the text:
a) Production and Culturing of the Macrophages
The macrophages were obtained by differentiation of monocytes which were themselves isolated from peripheral blood mononuclear cells.
To do this, the peripheral blood mononuclear cells were separated from the other elements of the blood by centrifugation on a ficoll gradient (MSL 2000, from Eurobio) and washed twice in RPMI 1640 medium (from Boehringer Mannheim). The monocytes were isolated from these mononuclear cells by counter-current elutriation. The fractions collected were analyzed using a cell counter-analyzer (from Coulter) and the cells corresponding to each fraction were phenotyped and then analyzed using a flow cytometer (FACS, from Becton Dickinson). The purity of the monocytes thus collected is at least equal to 95%.
These monocytes were then suspended in a culture medium (medium A below) comprising RPMI 1640 medium (from Boehringer Mannheim) supplemented with 10% fetal calf serum (from Boehringer Mannheim) decomplemented beforehand by treatment at 56° C. for 30 minutes, L-glutamine (2 mM) and a solution containing 100 μg/ml of 3 antibiotics: penicillin, streptomycin and neomycin (PSN, from Life Technologies), at a rate of 1 million monocytes per ml of culture medium. […]

The subject of data set [3] is HIV-1/Ba-L. The data set can be described thus: Various procedures for treating monocyte-derived macrophages (before/after infection, maintained or not). Particulars: Human immunodeficiency virus 1, BAL, Macrophage, triplicate, read-out: percentage of inhibition (I) of the viral replication. Format: cell-based. How it is done:
Various procedures for treating monocyte-derived macrophages with the piperazine derivatives in accordance with the invention were tested using a protocol similar to that described in Example 14.
In these tests, however, the macrophage cultures were divided into three groups:
a first group (group 1 below) in which the macrophages were treated with the piperazine derivatives 24 hours before being infected with HIV (i.e. on D3) and the treatment was maintained up to D28, as described in Example 14,
a second group (group 2 below) in which the macrophages were treated 24 hours after having been infected with HIV (i.e. on D5) and the treatment was maintained up to D28, and
a third group (group 3 below) in which the macrophages were treated 24 hours before being infected with HIV (i.e. on D3), but the treatment was not subsequently maintained.
In all cases, the piperazine derivatives were used at a dose of 100 μM and the tests were carried out in triplicate.

With `CCN(CC)C(=O)OCC1CN(C(=O)c2cc(OC)c(OC)c(OC)c2)CCN1C(=O)c1cc(OC)c(OC)c(OC)c1` (stereo not shown) [Example 2, 1,4-bis(3′,4′,5′-trimethoxybenzoyl)-2-(N,N-diethylaminocarbonyloxymethyl)piperazine], the “viability of monocyte-derived macrophage cultures versus control cultures (number of live cells)” value in data set [1] is on record as “no significant difference”. In addition, in the data set on HIV-1/Ba-L [2], the “doses at which inhibitory activity on HIV replication is shown” value is recorded as “above 1 μM”. Also, the inhibition at 100 µM in the data set on HIV-1/Ba-L [3] (24 h, Group 2: treated 24 hours after infection (D5), maintained up to D28, average ± standard deviation) was found to be 88 ± 12%; with HIV-1/Ba-L [3] (Group 1: treated 24 hours before infection (D3), maintained up to D28, average ± standard deviation), 91 ± 2%; in the data set with HIV-1/Ba-L [3] (Group 3: treated 24 hours before infection (D3), treatment not maintained, average ± standard deviation), 73 ± 2%.
`CCN(CC)C(=O)OCC1CN(C(=S)c2cc(OC)c(OC)c(OC)c2)CCN1C(=O)c1cc(OC)c(OC)c(OC)c1` (stereo not shown) registered a melting point of 105.8 °C.
The same measure, in the same setting: for `CCN(CC)C(=O)OCC1CN(C(=O)c2cc(OC)c(OC)c(OC)c2)CCN1Cc1ccccc1.Cl` (stereo not shown) [Example 8, 1-benzyl-4-(3′,4′,5′-trimethoxybenzoyl)-2-(N,N-diethylaminocarbonyloxymethyl)piperazine hydrochloride] the value was 134 °C.

One may read the inhibition as the share of the control response that was lost under treatment. As a reminder, the melting point is the temperature of the solid-liquid transition.
